The source of these data is patent US20140363391A1, “SYSTEM AND METHOD FOR ADMINISTERING POLOXAMERS AND ANESTHETICS WHILE PERFORMING CPR AND MINIMIZING REPERFUSION INJURY” (priority 2013, published 2014).

This series relates to animals receiving CPR. Briefly: Animal studies with administration of an anesthetic gas during CPR. Format: in vivo. To be noted: compared with other inhaled anesthetics. An excerpt: In one embodiment, the administered anesthetic includes sevoflurane. Other volatile anesthetics that may be administered include: halothane, enflurane, and desflurane isoflurane, xenon, helium and the like. […] These anesthetics may provide protective effects when administered before or during CPR and help stabilize the brain, heart, or body to help the heart, brain, and/or body to stay fresh. It is believed that some anesthetic agents provide these effects by attenuating the mitochondrial membrane permeability, or manipulating and protecting the mitochondrial membrane pores. It is believed that during ischemia, permeability pores in the mitochondria cell membrane open up causing the mitochondria to swell. In such a condition, the mitochondria are destroyed or damaged when blood flow is reestablished. The anesthetic may help protects against such damage, especially if the anesthetic is delivered or delivery is initiated early in reestablishing blood flow. Some volatile anesthetics like Xenon provide anesthesia by non-competitive inhibit N-methyl-D-aspartate receptors. Due to the fact that reperfusion injury occurs very early during the resuscitation efforts (within 2-3 minutes from the imitation of CPR) it is preferable that the anesthetic is delivered or delivery is initiated within the first 5 minutes of CPR efforts. […]

`FCOC(C(F)(F)F)C(F)(F)F` [Sevoflurane, sevoflurane]: the cardiodepressant effects entry is on record as “less of cardiodepressant effects” and the “protection from reperfusion injury” value is “significant protection from reperfusion injury”.
